Assay results published in patent US9510598B2, “Nitrogen-containing heterocyclic compounds for plant disease control” (BAYER CROPSCIENCE AG, priority 2012, dated 2016).
Read-outs that look alike come from different tables or passages of the source.

Legend:
[1] = type: physicochemical
[2] = tested on: Puccinia recondita; assay: In vivo preventive test on Puccinia recondita (brown rust on wheat); settings: 500 ppm; wheat plants sprayed 24 hours before contamination; grading 10 days after contamination vs control plants
Method: Wheat plants (“Scipion” variety), sown in starter cups on a 50/50 peat soil-pozzolana substrate and grown at 22° C. (12 h)/20° C. (12 h), are treated at the 1-leaf stage (10 cm height) by spraying with the active ingredient prepared as described above. Plants, used as controls, are treated with the mixture of acetone/tween/DMSO/water not containing the active material. After 24 hours, the plants are contaminated by spraying the leaves with an aqueous suspension of Puccinia recondita spores (100 000 spores per ml).

[3] = tested on: Septoria tritici; assay: In vivo preventive test on Septoria tritici (leaf spot on wheat); settings: 500 ppm; wheat plants sprayed 24 hours before contamination; grading 21 to 28 days after contamination vs control plants
How it was run: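 Scipion wheat at 1-leaf stage sprayed with compound, controls receiving acetone/tween/DMSO/water vehicle; 24 h later leaves inoculated with Septoria tritici spores (500 000 spores per ml). Efficacy (%) graded versus control plants 21 to 28 days after contamination.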

[4] = tested on: Alternaria brassicae; assay: In vivo preventive test on Alternaria brassicae (leaf spot on radish); settings: 500 ppm; radish plants sprayed 24 hours before contamination; grading 5 days after contamination vs control plants
Method: Radish plants (“Pernod Clair” variety), sown in starter cups on a 50/50 peat soil-pozzolana substrate and grown at 17° C., are treated at the 2-leaf stage by spraying with the active ingredient prepared as described above. Plants, used as controls, are treated with the mixture of acetone/tween/DMSO/water not containing the active material. After 24 hours, the plants are contaminated by spraying the leaves with an aqueous suspension of Alternaria brassicae spores (50 000 spores per ml). The spores are collected from a 15-day-old culture. […] Grading (% of efficacy) is carried out 5 days after the contamination, in comparison with the control plants.

[5] = tested on: Botrytis cinerea; assay: In vivo preventive test on Botrytis cinerea (grey mould); settings: 500 ppm; gherkin plants sprayed 24 hours before contamination; grading 4-5 days after contamination vs control plants
How it was run: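 Gherkin plants ("Vert petit de Paris") sprayed with compound at Z11 cotyledon stage, then inoculated 24 h later with B. cinerea spores (50 000/ml) in PDB/fructose/NH4NO3/KH2PO4 nutrient solution. Incubated at 17 °C, 80% RH; % efficacy versus solvent-treated controls graded 4–5 days after contamination.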

[6] = tested on: Sphaerotheca fuliginea; assay: In vivo preventive test on Sphaerotheca fuliginea (powdery mildew on cucurbits); settings: 500 ppm; gherkin plants sprayed 24 hours before contamination; grading 12 days after contamination vs control plants
How it was run: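 Preventive spray of gherkin plants at Z11 cotyledon stage, grown at 24° C; inoculation 24 hours later with Sphaerotheca fuliginea spores (100 000 spores per ml). Efficacy graded 12 days post-inoculation as % versus solvent-treated control plants.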

[7] = tested on: Phytophthora infestans; type: in vivo; settings: 500 ppm; tomato plants sprayed 24 hours before contamination; grading 5 days after contamination vs control plants
[8] = method [a]: HPLC/LC-MS on reversed phase at pH 2.7, 0.1% formic acid in water / acetonitrile, gradient 10% to 95% acetonitrile
[9] = HPLC on reversed phase columns, method [a]: pH 2.7, 0.1% formic acid in water / acetonitrile, linear gradient 10% to 95% acetonitrile
[10] = method [a]: HPLC/LC-MS on reversed phase at pH 2.7, 0.1% formic acid in water / acetonitrile, linear gradient 10% to 95% acetonitrile

Compound | log P [1, 8] | % of efficacy (protection) [3] | % of efficacy (protection) [4] | % of efficacy (protection) [5] | log P [1, 10] | other results
CC1(C(N)=O)CC(c2ccc3ncc(Br)cc3c2)=NO1 (racemic) [compound 380] | 1.82[a] | – | – | – | – | % of efficacy (protection) [2]: 78%
CCC#Cc1cnc2ccc(C3=NOC(C)(C(=O)NCc4cn(CC)nc4C)C3)cc2c1 (racemic) [compound 394] | 2.75[a] | – | – | – | – | % of efficacy (protection) [2]: 92%
C#Cc1cnc2ccc(C3=NOC(C)(C(=S)NCc4cnn(C)c4)C3)cc2c1 (racemic) [compound 451] | 2.62[a] | 94% | – | – | – | % of efficacy (protection) [2]: 89%
CC1(C(=O)NC2CCC2)CC(c2ccc3ncc(I)cc3c2)=NO1 (racemic) [compound 454] | 3.06[a] | – | – | – | – | % of efficacy (protection) [2]: 94%
C#Cc1cnc2ccc(C3=NOC(OC)(C(=O)N4CCCCO4)C3)cc2c1 (racemic) [compound 457] | 2.41[a] | 88% | – | – | – | % of efficacy (protection) [2]: 83%
C#Cc1cnc2ccc(C3=NOC(C)(C(=O)NCC4OCCc5ccccc54)C3)cc2c1 (single isomer, unassigned) [compound 245] | – | 71% | 94% | – | – | log P [1, 9]: 2.92^[a]
C#Cc1cnc2ccc(C3=NOC(C)(C(=O)NCC4OCCc5ccccc54)C3)cc2c1 (single isomer, unassigned) [compound 262] | – | – | – | 95% | – | log P [1, 9]: 3.13^[a]; % of efficacy (protection) [2]: 81%
Cc1cnc(CNC(=O)C2(C)CC(c3ccc4ncc(Br)cc4c3)=NO2)cn1 (centres unmarked) [compound 85] | – | 75% | 96% | – | 2.2^[a] | –
C#Cc1cnc2ccc(C3=NOC(C)(C(=O)NCc4ccncc4)C3)cc2c1 (centres unmarked) [compound 99] | – | – | 70% | 100% | 1.2^[a] | –
C#Cc1cnc2ccc(C3=NOC(C)(C(=O)NCc4ncc(C(F)(F)F)cc4Cl)C3)cc2c1 (centres unmarked) [compound 157] | – | – | – | – | 3.48^[a] | % of efficacy (protection) [2]: 72%
C#Cc1cnc2ccc(C3=NOC(C)(C(=O)NCc4cccs4)C3)cc2c1 (centres unmarked) [compound 162] | – | 86% | 88% | 99% | 2.73^[a] | % of efficacy (protection) [6]: 94%
C#Cc1cnc2ccc(C3=NOC(C)(C(=O)NCc4ccco4)C3)cc2c1 (centres unmarked) [compound 164] | – | – | 88% | 71% | 2.51^[a] | –
C#Cc1cnc2ccc(C3=NOC(C)(C(=O)NCc4noc(C)n4)C3)cc2c1 (centres unmarked) [compound 170] | – | 71% | 81% | 100% | 1.99^[a] | –
Cc1nc(CNC(=O)C2(C)CC(c3ccc4ncc(Br)cc4c3)=NO2)no1 (centres unmarked) [compound 171] | – | 71% | 75% | – | 2.23^[a] | –
C#Cc1cnc2ccc(C3=NOC(C)(C(=O)NCc4cnn(C)c4C)C3)cc2c1 (centres unmarked) [compound 178] | – | 100% | 75% | 100% | 1.93^[a] | –
C#Cc1cnc2ccc(C3=NOC(C)(C(=O)NCc4cnn(C)c4)C3)cc2c1 (centres unmarked) [compound 180] | – | 100% | 75% | 95% | 1.86^[a] | % of efficacy (protection) [7]: 86%; % of efficacy (protection) [6]: 98%
C#Cc1cnc2ccc(C3=NOC(C)(C(=O)NCC4CCOC4)C3)cc2c1 (centres unmarked) [compound 214] | – | 100% | 75% | 100% | 1.98^[a] | % of efficacy (protection) [6]: 78%
CC1(C(=O)NC2CC2C2CC2)CC(c2ccc3ncc(Br)cc3c2)=NO1 (centres unmarked) [compound 215] | – | 86% | 75% | 87% | 3.29^[a] | –

Compound | log P [1, 8] | % of efficacy (protection) [3] | % of efficacy (protection) [4] | % of efficacy (protection) [5] | log P [1, 10] | other results
C#Cc1cnc2ccc(C3=NOC(C)(C(=O)NCc4ccc5c(c4)OCC5)C3)cc2c1 (centres unmarked) [compound 220] | – | – | 88% | 100% | 2.82^[a] | –
C#Cc1cnc2ccc(C3=NOC(C)(C(=O)NCc4ccc5ncccc5c4)C3)cc2c1 (centres unmarked) [compound 227] | – | 93% | 75% | 92% | 1.59^[a] | –
CC1(C(=O)NC2CCC2)CC(c2ccc3ncc(Br)cc3c2)=NO1 (centres unmarked) [compound 234] | – | 86% | 75% | 99% | – | log P [1, 9]: 2.9^[a]; % of efficacy (protection) [6]: 94%
CC1(C(=O)NCc2csc3ccc(Cl)cc23)CC(c2ccc3ncc(Br)cc3c2)=NO1 (centres unmarked) [compound 241] | – | – | 81% | – | – | log P [1, 9]: 4.21^[a]
C#Cc1cnc2ccc(C3=NOC(C)(C(=O)NCc4ccc5ccoc5c4)C3)cc2c1 (centres unmarked) [compound 242] | – | 86% | 94% | 86% | – | log P [1, 9]: 3^[a]
C#Cc1cnc2ccc(C3=NOC(C)(C(=O)NCc4csc5ccc(Cl)cc45)C3)cc2c1 (centres unmarked) [compound 244] | – | – | 81% | – | – | log P [1, 9]: 3.74^[a]
C#Cc1cnc2ccc(C3=NOC(C)(C(=O)NCC4CCCCC4)C3)cc2c1 (centres unmarked) [compound 246] | – | – | 75% | – | – | log P [1, 9]: 3.55^[a]
CC(C)NC(=O)C12OCCCC1C(c1ccc3ncc(Br)cc3c1)=NO2 (centres unmarked) [compound 273] | – | – | 75% | – | – | log P [1, 9]: 2.90[a]
CCn1cc(CNC(=O)C2(c3ccccc3)CC(c3ccc4ncc(Br)cc4c3)=NO2)c(C)n1 (centres unmarked) [compound 278] | – | – | 86% | – | – | log P [1, 9]: 3.18[a]; % of efficacy (protection) [6]: 100%
C#CC1(C(=O)NC(C)C)CC(c2ccc3ncc(Br)cc3c2)=NO1 (centres unmarked) [compound 402] | 2.92[a] | 100% | 71% | 99% | – | –
C#Cc1cc2cc(C3=NOC(C)(C(=O)NCc4cn(CC)nc4C)C3)ccc2nc1Cl (centres unmarked) [compound 411] | 2.59[a] | – | 80% | – | – | –
CCCOc1cnc2ccc(C3=NOC(C)(C(=O)NC(C)C)C3)cc2c1 (centres unmarked) [compound 412] | 2.16[a] | – | 70% | – | – | –
CCOC1(C(=O)NC(C)C)CC(c2ccc3ncc(Br)cc3c2)=NO1 (centres unmarked) [compound 415] | 2.98[a] | – | 80% | – | – | –
CC(C)NC(=O)C1(CC2CC2)CC(c2ccc3ncc(Br)cc3c2)=NO1 (centres unmarked) [compound 422] | 3.60[a] | – | 72% | – | – | –
CCCn1cc(CNC(=O)C2(CC3CC3)CC(c3ccc4ncc(Br)cc4c3)=NO2)c(C)n1 (centres unmarked) [compound 424] | 3.33[a] | – | – | – | – | % of efficacy (protection) [2]: 72%
C#Cc1cnc2ccc(C3=NOC(OC)(C(=O)N(CC(F)F)C(C)C)C3)cc2c1 (centres unmarked) [compound 469] | 3.60[a] | 97% | – | – | – | % of efficacy (protection) [2]: 80%
CSC1(C(=O)NC(C)C)CC(c2ccc3ncc(Br)cc3c2)=NO1 (centres unmarked) [compound 530] | – | – | – | 100% | – | log P [1, 9]: 2.88[a]; % of efficacy (protection) [2]: 79%
